Results on 6 compounds are retold here after US7262185B2, “Benzazepine derivative, process for producing the same, and use” (Takeda Chemical Industries Ltd., priority 2001, dated 2007).

The target in series [1] is T1, human CCR5 chemokine receptor (Homo sapiens, UniProt P51681).
T1 construct: expressed in transfected cells
As to the kind of experiment: Inhibition of [125I]-RANTES binding to CCR5/CHO cells (CCR5 antagonistic activity). Conditions: 40 min, test compound 1 μM, [125I]-RANTES as ligand, room temperature, read-out: Binding Inhibitory Ratio (%). As to the method: Cloning of CCR5 gene from human spleen cDNA was conducted using the PCR method. Using spleen cDNA (0.5 ng) (TOYOBO CO., LTD, QUICK-Clone cDNA) as a template, PCR was performed in a DNA Thermal Cycler 480 (manufactured by Perkin Elmer) (reaction conditions: 30 cycles of 95° C. for 1 minute, 60° C. for 1 minute, and 75° C. for 5 minutes) by adding primer sets, SEQ. ID NO: 1 (sequence length: 34; sequence type: nucleic acid; chain number: single strand; topology: linear; kind of sequence: other nucleic acid synthetic. DNA) described in Experimental. Example (1) of WO 99/32100, and SEQ ID NO: 2 (sequence length: 34; sequence type: nucleic acid; chain number: single strand; topology: linear; kind of sequence: other nucleic acid synthetic. DNA) described in Experimental. Example (1) of WO 99/32100, (25 pmol, respectively), which were prepared referring to the nucleotide sequence of CCR5 gene, as reported by Samson et al. (Biochemistry 35 (11), 3362-3367 (1996)) and by using TaKaRa. EX Taq (Takara Shuzo). The resultant. PCR product was subjected to agarose gel electrophoresis to collect an approximately 1.0 kb. DNA fragment, which was subjected to an Original TA Cloning Kit (Funakoshi Co., Ltd.) to carry out cloning of CCR5 gene.
The plasmid obtained above was digested with restriction enzymes XbaI (Takara Shuzo Co., Ltd.) and BamHI (Takara Shuzo Co., Ltd.), and then subjected to agarose gel electrophoresis to collect DNA fragment of about 1.0 kb. The DNA fragment and plasmid pcDNA 3.1 (Funakoshi. Co., Ltd.) for expression in animal cells, which was previously digested with XbaI and BamHI, were mixed and ligated by DNA Ligation Kit Ver. 2 (Takara Shuzo Co., Ltd.). The resulting plasmid was subjected to transformation into. E. coli JM109 competent cells (Takara Shuzo Co., Ltd.) to obtain plasmid pCKR5.
CHO-K1 cells were cultured in a 750-ml tissue culture flask (Becton, Dickinson and Company.) using. Ham F12 medium (NIHON PHARMACEUTICAL CO., LTD.) containing 10% fetal bovine serum (Lifetech Oriental) and were collected using 0.5 g/L trypsin-0.2 g/L EDTA (Lifetech Oriental). The cells were washed with PBS (Lifetech Oriental), centrifuged (1000 rpm, 5 minutes), and suspended in PBS. The DNA was introduced into the cells using a Gene Pulser (Bio-Rad Laboratories, Inc.) under the following conditions. Namely, 8×10^6 cells and 10 μg of plasmid pCKR5 for expression of human CCR5 were placed in a cuvette having a 0.4-cm gap, and electroporation was carried out with a voltage 0.25 kV and 960 μF of capacitance. Then, the cells were transferred into Ham's. F12 medium containing 10% fetal bovine serum, and incubated for 24 hours. The cells were collected, centrifuged, and suspended in Ham' F12 medium containing 10% fetal bovine serum and Geneticin (Lifetech Oriental) at a concentration of 500 μg/ml. The suspension of cells was diluted to a concentration of 10^4 cells/ml, and was inoculated onto 96-well plate (Becton Dickinson), to obtain Geneticin-resistant strain.
Then, resulting. Geneticin-resistant strain were cultured on 96-well plate (Becton Dickinson), and CCR5-expressing cells were selected from the resistant cells. Namely, in an assay buffer, (Ham's F12 medium containing 0.5% BSA, and 20 mM HEPES (Wako Pure Chemical Ind., pH 7.2)) to which was added […][125I]-RANTES (Amersham) as a ligand, the cells were subjected to a binding reaction at room temperature for 40 minutes. Wells containing the cells were washed with ice-cooled PBS, and 50 μl/well of 1M NaOH was added and stirred. The cells to which the ligand was bound specifically, i.e., CCR5/CHO cells, were selected by measurement of radioactivity using a […].
The CCR5/CHO cells were inoculated onto 96-well microplate at a concentration of 5×10^4 cells/well, and were cultured for 24 hours. After removal of the medium by aspiration, to each well was added an assay buffer containing a test compound (1 μM), and [125I]/RANTES (Amersham) used as a ligand at a concentration of […]. […]

T1 sequence (P51681 whole entry): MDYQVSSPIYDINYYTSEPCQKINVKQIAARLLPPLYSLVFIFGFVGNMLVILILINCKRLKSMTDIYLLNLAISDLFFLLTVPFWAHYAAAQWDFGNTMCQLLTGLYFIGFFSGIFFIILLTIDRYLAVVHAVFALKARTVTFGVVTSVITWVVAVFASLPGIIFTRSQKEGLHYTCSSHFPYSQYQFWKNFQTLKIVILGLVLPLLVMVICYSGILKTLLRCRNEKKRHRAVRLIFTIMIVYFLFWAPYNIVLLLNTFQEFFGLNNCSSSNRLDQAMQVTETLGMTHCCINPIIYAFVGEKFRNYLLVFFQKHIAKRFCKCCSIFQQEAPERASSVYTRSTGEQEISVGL

As to `CCCCOCCOc1ccc(-c2ccc3c(c2)C=C(C(=O)Nc2ccc(SCc4nccn4CCCC(N)=O)cc2)CCN3CC(C)C)cc1` [Compound 415, N-[4-[[[1-(4-amino-4-oxobutyl)-1H-imidazol-2-yl]methyl]thio]phenyl]-7-[4-(2-butoxyethoxy)phenyl]-1-isobutyl-2,3-dihydro-1H-1-benzazepine-4-carboxamide], the melting point (usually the temperature of the solid-liquid transition) lay in the range of 142 to 143 °C. The inhibition at 1 µM in series [1] is 98%.

In turn, `CCCCOCCOc1ccc(-c2ccc3c(c2)C=C(C(=O)Nc2ccc([C@H](O)c4cccc[n+]4[O-])cc2)CCN3Cc2cnn(C)c2)cc1` [Compound 87, 7-[4-(2-butoxyethoxy)phenyl]-N-[4-[(S)-hydroxy(1-oxidopyridin-2-yl)methyl]phenyl]-1-(1-methylpyrazol-4-ylmethyl)-2,3-dihydro-1H-1-benzazepine-4-carboxamide] came in with a melting point of 94 to 97 °C. Moreover, the inhibition at 1 µM in series [1] is 89%.

The compound `CCCCOCCOc1ccc(-c2ccc3c(c2)C=C(C(=O)Nc2ccc([S+]([O-])Cc4nccn4CCCC(=O)NC)cc2)CCN3CC(C)C)cc1` (stereo not drawn) [Compound 424, 7-[4-(2-butoxyethoxy)phenyl]-N-[4-[[[1-[4-(methylamino)-4-oxobutyl]-1H-imidazol-2-yl]methyl]sulfinyl]phenyl]-1-isobutyl-2,3-dihydro-1H-1-benzazepine-4-carboxamide] gave a melting point of 159 to 161 °C. Besides, the inhibition at 1 µM in series [1] stood at 96%.

Turning to `CCCCOCCOc1ccc(-c2ccc3c(c2)C=C(C(=O)Nc2ccc(CCCn4cnnc4)cc2)CCN3CC(C)C)cc1` [Compound 63, 7-[4-(2-butoxyethoxy)phenyl]-1-isobutyl-N-[4-[3-(4H-1,2,4-triazol-4-yl)propyl]phenyl]-2,3-dihydro-1H-1-benzazepine-4-carboxamide], the melting point is 165 to 167 °C. Moreover, the inhibition at 1 µM in series [1] was determined as 96%.

`CCCCOCCOc1ccc(-c2ccc3c(c2)C=C(C(=O)Nc2ccc(SCc4nncn4CCC)c(C)c2)CCN3CC(C)C)cc1` [Compound 40, 7-[4-(2-butoxyethoxy)phenyl]-1-isobutyl-N-[3-methyl-4-[(4-propyl-4H-1,2,4-triazol-3-yl)methylthio]phenyl]-2,3-dihydro-1H-1-benzazepine-4-carboxamide] returned a melting point of 104 to 107 °C. Also, in series [1], the inhibition at 1 µM came out at 90%.

Consider `CCCCOCCOc1ccc(-c2ccc3c(c2)C=C(C(=O)Nc2ccc([S+]([O-])Cc4nncn4CC)cc2)CCN3CC(C)C)cc1` (stereo not drawn) [Compound 135, 7-[4-(2-butoxyethoxy)phenyl]-N-[4-(4-ethyl-4H-1,2,4-triazol-3-ylmethylsulfinyl)phenyl]-1-isobutyl-2,3-dihydro-1H-benzazepine-4-carboxamide], for which the melting point was 102 to 104 °C. In addition, the inhibition at 1 µM in series [1] came to 100%.
